Source: ChEMBL document CHEMBL1158133, “Cytotoxic flavaglines and bisamides from Aglaia edulis” (J Nat Prod, 2006)
Values after ≈ are worked out from the molar mass of the structure shown.

What was measured:
[1] = system: MCF7; assay: Cytotoxicity against human MCF7 cells; format: functional; conditions: read-out: ED50 (the source's name)
[2] = system: LNCaP; assay: Cytotoxicity against human LNCAP cells; format: functional; conditions: read-out: ED50 (the source's name)
[3] = system: Lu1; assay: Cytotoxicity against human Lu1 cells; format: functional; conditions: read-out: ED50 (the source's name)
[4] = Cytotoxicity against HUVEC; format: cell-based; conditions: human, HUVEC cells; read-out: ED50 (the source's name)
[5] = system: P388; assay: In vivo antitumor activity against mouse P388 cellsleukemia model at 4.5 mg/kg, ip; format: functional; conditions: route intraperitoneal

## COc1ccc([C@@]23Oc4cc5c(c(OC)c4[C@]2(O)[C@H](OC(C)=O)[C@H](C(=O)N(C)C)[C@H]3c2ccccc2)OCO5)cc1
[1]
  EC50: 0.02 µg/mL (≈ 0.0356 µM)
[2]
  EC50: 0.01 µg/mL (≈ 0.0178 µM)
[3]
  EC50: 0.001 µg/mL (≈ 0.00178 µM)
[4]
  CC50: 0.5 µg/mL (≈ 0.89 µM)
[5]
  T/C: 110%

## COc1ccc([C@@]23Oc4cc5c(c(OC)c4[C@]2(O)[C@H](OC(C)=O)[C@H](C(=O)N(C)C)[C@H]3c2ccccc2)OCO5)cc1OC
[1]
  EC50: 0.8 µg/mL (≈ 1.35 µM)
[2]
  EC50: 0.3 µg/mL (≈ 0.507 µM)
[3]
  EC50: 0.5 µg/mL (≈ 0.845 µM)
[4]
  CC50: 0.5 µg/mL (≈ 0.845 µM)

## COc1ccc([C@]23Oc4cc5c(c(OC)c4[C@](O)([C@H](C(=O)N4CCCC4NC(=O)CC(C)C)[C@H]2c2ccccc2)[C@@H]3OC(C)=O)OCO5)cc1 (stereo not given in full)
[1]
  EC50: > 5 µg/mL
[2]
  EC50: > 5 µg/mL
[3]
  EC50: > 5 µg/mL
[4]
  CC50: > 5 µg/mL

## COc1ccc(-c2oc3cc(OC)c(OC)c(O)c3c(=O)c2OC)cc1
[1]
  EC50: > 5 µg/mL
[2]
  EC50: > 5 µg/mL
[3]
  EC50: > 5 µg/mL
[4]
  CC50: > 5 µg/mL

## COc1ccc([C@]23Oc4cc5c(c(OC)c4[C@](O)([C@H](C(=O)N4CCCC4NC(=O)C=C(C)C)[C@H]2c2ccccc2)[C@@H]3O)OCO5)cc1 (stereo not given in full) [19,20-DEHYDROEDULIRIN A]
[1]
  EC50: > 5 µg/mL
[2]
  EC50: > 5 µg/mL
[3]
  EC50: > 5 µg/mL
[4]
  CC50: > 5 µg/mL

## COC(=O)[C@@]1(c2ccc(OC)cc2)Oc2cc3c(c(OC)c2C(=O)[C@H](C(=O)N2CCC[C@@H]2NC(=O)C=C(C)C)[C@H]1c1ccccc1)OCO3 [19,20-DEHYDROEDULISONE A]
[1]
  EC50: > 5 µg/mL
[2]
  EC50: > 5 µg/mL
[3]
  EC50: > 5 µg/mL
[4]
  CC50: > 5 µg/mL

## COc1ccc(C2C(=O)Oc3cc4c(c(OC)c32)OCO4)cc1 (stereo not given) [AGLALACTONE]
[1]
  EC50: > 5 µg/mL
[2]
  EC50: > 5 µg/mL
[3]
  EC50: > 5 µg/mL
[4]
  CC50: > 5 µg/mL

## CS/C=C/C(=O)NC1CCCN1C(=O)/C=C/c1ccccc1 (stereo not given) [AGLAMIDE A]
[1]
  EC50: > 5 µg/mL
[2]
  EC50: > 5 µg/mL
[3]
  EC50: > 5 µg/mL
[4]
  CC50: > 5 µg/mL

## C[S+]([O-])/C=C/C(=O)NC1CCCN1C(=O)/C=C/c1ccccc1 (stereo not given) [AGLAMIDE B]
[1]
  EC50: > 5 µg/mL
[2]
  EC50: > 5 µg/mL
[3]
  EC50: > 5 µg/mL
[4]
  CC50: > 5 µg/mL

## CC(C)CC(=O)NC1CCCN1C(=O)/C=C/c1ccccc1 (stereo not given) [AGLAMIDE C]
[1]
  EC50: > 5 µg/mL
[2]
  EC50: > 5 µg/mL
[3]
  EC50: > 5 µg/mL
[4]
  CC50: > 5 µg/mL

## COC1CCCN1C(=O)/C=C/c1ccccc1 (stereo not given) [AGLAMIDE D]
[1]
  EC50: > 5 µg/mL
[2]
  EC50: > 5 µg/mL
[3]
  EC50: > 5 µg/mL
[4]
  CC50: > 5 µg/mL

## COc1ccc([C@@]23Oc4cc5c(c(OC)c4[C@]2(O)[C@H](O)[C@H](C(=O)N(C)C)[C@H]3c2ccccc2)OCO5)cc1 [AGLAROXIN A]
[1]
  EC50: 0.06 µg/mL (≈ 0.115 µM)
[2]
  EC50: 0.02 µg/mL (≈ 0.0385 µM)
[3]
  EC50: 0.04 µg/mL (≈ 0.077 µM)
[4]
  CC50: 0.1 µg/mL (≈ 0.192 µM)

## COc1ccc([C@]23Oc4cc5c(c(OC)c4[C@](O)([C@H](C(=O)N4CCCC4NC(=O)CC(C)C)[C@H]2c2ccccc2)[C@@H]3O)OCO5)cc1 (stereo not given in full) [EDULIRIN A]
[1]
  EC50: > 5 µg/mL
[2]
  EC50: > 5 µg/mL
[3]
  EC50: > 5 µg/mL
[4]
  CC50: > 5 µg/mL

## COc1ccc([C@]23Oc4cc5c(c(OC)c4[C@](O)([C@H](c4ccccc4)[C@H]2C(=O)N2CCCC2NC(=O)CC(C)C)[C@@H]3O)OCO5)cc1 (stereo not given in full) [EDULIRIN B]
[1]
  EC50: > 5 µg/mL
[2]
  EC50: > 5 µg/mL
[3]
  EC50: > 5 µg/mL
[4]
  CC50: > 5 µg/mL

## COc1ccc([C@]23Oc4cc5c(c(OC)c4[C@](O)([C@@H](c4ccccc4)[C@@H]2C(=O)N2CCCC2NC(=O)CC(C)C)[C@@H]3O)OCO5)cc1 (stereo not given in full) [ISOEDULIRIN A]
[1]
  EC50: > 5 µg/mL
[2]
  EC50: > 5 µg/mL
[3]
  EC50: > 5 µg/mL
[4]
  CC50: > 5 µg/mL

## COc1cc2ccc(=O)oc2cc1O [SCOPOLETIN]
[1]
  EC50: > 5 µg/mL
[2]
  EC50: > 5 µg/mL
[3]
  EC50: > 5 µg/mL
[4]
  CC50: > 5 µg/mL
